# Marks after values point to notes of the source that are not given here.
# Experiments:
# cocaine-treated mice [1] = assay: Cocaine-induced behavioural sensitization with CB1 modulation
# cocaine-treated mice [2] = assay: Cocaine-induced hyperlocomotion; format: in vivo
# Method in brief: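 Morphinans (15 and 30 mg/kg, i.p.) or dimemorfan (20 mg/kg, i.p.) given 30 minutes before cocaine (5 and 20 mg/kg, i.p.); treatments continued for 7 days. Locomotion scored as central activity (non-specific movement in box center) and marginal activity (circling).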
# σ1 receptors = σ1 receptors (Homo sapiens, UniProt Q99720); details: cited from earlier work
# LPS-treated mice [3] = assay: Nigral TH-IR in LPS-treated mice; format: in vivo; details: 24 mg/kg i.p.
# Excerpt: FIGS. 8A-8B. […] Magnification=40×.
# Control animals received striatal injection with PBS.
# LPS-treated mice [4] = assay: LPS-induced loss of nigral TH-IR with CB1 agonist/antagonist and HM; format: in vivo; details: given alone
# Method: Mortality was observed by 2 weeks after bilateral LPS intrastriatal injection (one side: 2 μg×2).
# LPS-treated mice [5] = assay: LPS model, HM versus L-dopa/carbidopa: nigral TH-IR; details: mouse, in vivo
# Excerpt: FIG. 27 show effects of carbidopa, L-dopa, carbidopa+L-dopa and HM on the nigral tyrosine hydroxylase-like immunoreactivity (TH-IR) of the mice treated with LPS.
# MA-treated mice [6] = assay: MA-induced loss of nigral TH-IR with CB1 agonist/antagonist and HM; details: given alone
# Method: Compounds were administered 3 days before and after MA injection.
# MPTP-treated mice [7] = assay: MPTP-induced loss of nigral TH-IR with CB1 agonist/antagonist and HM; format: in vivo; details: given alone: AM-251 0.3, ACEA 2, HM 20 mg/kg i.p.; MPTP 20 mg/kg i.p./day x 7
# Method: CB1 agonist or antagonist was administered 45 min before every MPTP, while HM was injected 30 min before every MPTP (20 mg/kg, i.p./day×7). Compounds were administered for 7 days post-final MPTP.
# MA-treated mice [8] = assay: MA model, HM versus L-dopa/carbidopa: hyperthermia; format: in vivo; details: MA 7.5 mg/kg i.p. x 4
# Method: FIGS. 31A-31B show effect of drugs on the MA-induced hyperthermia. Mice received MA injections as 2 hrs' time interval under the ambient temperature of 22.0±0.5° C.
# Experimental paradigm for MA with or without compounds is in FIG. 30. Treatment with MA (7.5 mg/kg, i.p.×four times as two hour time interval) produces hyperthermia (P<0.01).
# MPTP-treated mice [9] = assay: Striatal dopamine and metabolites (HPLC-EC) in MPTP-treated mice; details: for Concentration DA in the striatum: mean ± S.E.M., 8 animals
# CB1 receptor = CB1 receptor (Rattus norvegicus, UniProt P20272); format: biochemical
# C57 BL/6 mice = assay: Locomotor activity and locomotor pattern following repeated administration of morphinans or PCP; format: in vivo
# LPS-treated mice [10] = assay: LPS-induced mortality with CB1 agonist/antagonist and HM; format: in vivo; details: given alone: HM 20, ACEA 2, AM-251 0.3 mg/kg; 2 weeks after bilateral intrastriatal LPS
# LPS-treated mice [11] = assay: Hypokinesia induced by intrastriatal LPS; details: 12 or 24 mg/kg, twice before bilateral intrastriatal LPS
# Method: Male mice were anesthetized with chloral hydrate (200 mg/kg, i.p.) and positioned in a small-animal stereotaxic apparatus. […] LPS (2 μg in a volume of 2 μl of PBS) was injected into both sides of the striatum over a period of 2 min, and the injection needle was kept in place for 2 min after the injection. Control animals received striatal injection with PBS.
# Ten min after the last treatment with each drug, locomotor activity was measured for 30 min. After measuring the locomotor activity (i.e. 40 min after the last drug injection), the ‘absolute turn angular’ was analyzed in a 3-min monitoring period using an automated video-tracking system (Noldus Information Technology, Wagenin, The Netherlands) to examine locomotor patterns. […] Eight test boxes (40×40×30 cm high) were operated simultaneously by an IBM computer. Animals were studied individually during locomotion in each test box, where they were adapted for 10 min before starting the experiment. […] The distance traveled in cm by the animals in horizontal locomotor activity was analyzed (13, 25, 27). Data were collected and analyzed between 0900 and 1700 hr.
# MPTP-treated mice [12] = assay: Hypokinesia (reduction in locomotor activity) induced by MPTP; format: in vivo; details: 12 or 24 mg/kg i.p. 30 min before MPTP (20 mg/kg/day x 7), last three days
# LPS-treated mice [13] = assay: LPS model, HM versus L-dopa/carbidopa: microglia F4/80-like immunoreactivity; format: in vivo; details: substantia nigra
# [14] = tested on: NMDA receptor associated PCP sites; details: cited from earlier work
# MA-treated mice [15] = assay: MA-induced behavioural sensitization
# Method: Morphinans (20 mg/kg, i.p.) were administered last 3 days of wash-out period.
# MPTP-treated mice [16] = assay: Nigral tyrosine hydroxylase-like immunoreactivity in MPTP-treated mice; details: 24 mg/kg i.p.
# Method: Each morphinan was administered 30 min prior to every injection of MPTP for last three days (from day 4th to day 7th). Animals were sacrificed 24 h after the last MPTP treatment.
# MA-treated mice [17] = assay: MA-induced conditioned place preference with CB1 modulation
# Method: The control mice received an i.p. injection of saline just before entering the white or black compartment. Cocaine or MA dissolved in saline was administered immediately before the mice were placed in the white compartment. To test the effect of cocaine alone or MA alone or in combination with exemplified morphinans (DM, HM, AM, CM or DF), each morphinan was administered 2 hr before cocaine or saline injection.
# On day 1, the mice were pre-exposed to the test apparatus for 5 min. The guillotine doors were raised and the mice were allowed to move freely between the two compartments. On day 2, the time each mouse spent in each compartment was recorded for 15 min. On days 3, 5, 7, 9, 11, and 13, the mice were injected with cocaine before being confined to the white compartment, the non-preferred side, for 20 min. On days 4, 6, 8, 10, and 12, the mice were injected with saline before being confined to the black compartment, the preferred side, for 20 min. On day 14, the guillotine doors were raised. The mice were initially placed in the tunnel and the time spent by the mice in the two compartments was recorded for 15 min. The scores were calculated from the differences in the time spent in the white compartment in the testing and pre-testing phases.
# MA-treated mice [18] = assay: MA model, HM versus L-dopa/carbidopa: locomotor activity; format: in vivo; details: 3 days after MA
# cannabinoid CB1 site = cannabinoid CB1 site (Rattus norvegicus, UniProt P20272)
# cannabinoid CB1 site, sequence (P20272 whole entry): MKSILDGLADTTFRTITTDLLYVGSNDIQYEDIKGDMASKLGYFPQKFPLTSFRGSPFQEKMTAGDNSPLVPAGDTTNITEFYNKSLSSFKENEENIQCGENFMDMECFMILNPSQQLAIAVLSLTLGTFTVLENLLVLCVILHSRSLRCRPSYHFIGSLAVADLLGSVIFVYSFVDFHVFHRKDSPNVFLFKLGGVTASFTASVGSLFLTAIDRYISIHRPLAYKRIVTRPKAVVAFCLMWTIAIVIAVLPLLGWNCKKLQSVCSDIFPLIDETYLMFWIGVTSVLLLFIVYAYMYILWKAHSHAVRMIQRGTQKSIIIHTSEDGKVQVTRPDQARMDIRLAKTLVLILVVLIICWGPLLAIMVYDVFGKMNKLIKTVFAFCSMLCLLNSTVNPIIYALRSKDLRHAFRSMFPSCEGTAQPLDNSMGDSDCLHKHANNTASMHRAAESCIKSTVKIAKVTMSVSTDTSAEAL
# CB1 receptor, sequence (P20272 whole entry): as above
# σ1 receptors, sequence (Q99720 whole entry): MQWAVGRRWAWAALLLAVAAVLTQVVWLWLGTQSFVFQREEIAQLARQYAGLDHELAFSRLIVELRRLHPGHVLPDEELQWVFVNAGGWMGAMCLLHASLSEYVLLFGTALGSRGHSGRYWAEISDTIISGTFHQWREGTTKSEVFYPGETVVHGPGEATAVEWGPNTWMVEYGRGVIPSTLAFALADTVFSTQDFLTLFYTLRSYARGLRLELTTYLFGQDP
smiles,measurement,setting,value
"Oc1ccc2c(c1)[C@@]13CCCC[C@H]1[C@@H](C2)NCC3 [HM, 3-hydroxymorphinan]",behavioural effects of the compound itself,"cocaine-treated mice [1]; AM 251 0.3, ACEA 2, HM 20 mg/kg, no cocaine","Neither saline-, AM 251 (0.3 mg/kg)-, ACEA (2 mg/kg)-treated nor HM (20 mg/kg)-treated animals showed any specific behavioural effects"
same,effect on cocaine-induced behavioural sensitization,"cocaine-treated mice [1]; cocaine 10 mg/kg/day i.p. x 7, challenge one month later",significantly reduced
same,effect on locomotor activity induced by low dose of cocaine,"cocaine-treated mice [2]; cocaine 5 mg/kg i.p. x 7 days, morphinan 15 or 30 mg/kg (DF 20 mg/kg) i.p.",consistently attenuated locomotor activity induced by a low dose of cocaine
same,effect on hyperactivity induced by high dose of cocaine,"cocaine-treated mice [2]; cocaine 20 mg/kg i.p. x 7 days, morphinan 15 or 30 mg/kg i.p. 30 min before",not uniform
same,affinity for σ1 receptors,σ1 receptors,high affinity ligands
same,effect on LPS-induced reduction in nigral TH-positive cells,LPS-treated mice [3],significantly attenuated the reduction in TH-positive cells
same,effect on LPS-induced reduction in nigral TH-IR,LPS-treated mice [4],Attenuates LPS-Induced Reduced Tyrosine Hydroxylase-like Immunoreactivity
same,effect on LPS-induced loss in nigral TH-IR,LPS-treated mice [5],most effective in attenuating LPS-induced reduction in TH-IR
same,effect on MA-induced reduction in nigral TH-IR,MA-treated mice [6],Prevents Methamphetamine (MA)-induced Reduction in Tyrosine Hydroxylase-like Immunoreactivity
same,effect on MPTP-induced reduction of nigral TH-IR,MPTP-treated mice [7],Attenuates MPTP-induced Reduced Tyrosine Hydroxylase-like Immunoreactivity
same,effect on MA-induced hyperthermia,MA-treated mice [8],significantly attenenuated
same,"effect on MPTP-induced reductions in striatal DA, DOPAC and HVA",MPTP-treated mice [9]; 24 mg/kg pretreatment,significantly protected
same,Concentration DOPAC in the striatum,MPTP-treated mice [9]; morphinan 12 (mg/kg) + MPTP,68 ± 7 ng/100 mg wet tissue
same,Concentration HVA in the striatum,MPTP-treated mice [9]; morphinan 12 (mg/kg) + MPTP,84 ± 8 ng/100 mg wet tissue
same,Concentration DA in the striatum,MPTP-treated mice [9]; morphinan 12 (mg/kg) + MPTP,582 ± 74 ng/100 mg wet tissue
same,Concentration DOPAC in the striatum,MPTP-treated mice [9]; morphinan 24 (mg/kg) + MPTP,98 ± 9^c ng/100 mg wet tissue
same,Concentration HVA in the striatum,MPTP-treated mice [9]; morphinan 24 (mg/kg) + MPTP,104 ± 10^c ng/100 mg wet tissue
same,Concentration DA in the striatum,MPTP-treated mice [9]; morphinan 24 (mg/kg) + MPTP,896 ± 79^c ng/100 mg wet tissue
same,effect on CP 55940-induced stimulation in GTP γS binding,CB1 receptor,decreased
same,functional property at CB1 receptor,CB1 receptor,"partial agonist of CB1 receptor, as well as a CB1 antagonist"
same,inhibition of GTP γS binding,CB1 receptor; 100 nM,about 60%
same,locomotor pattern (tracings),"C57 BL/6 mice; 40 mg/kg i.p. (PCP 5 mg/kg), FIG. 3",did not produce significant marginal activity
same,marginal activity (circling behaviour; absolute turn angular),"C57 BL/6 mice; 20 or 40 mg/kg i.p./day x 7 (PCP 2.5 or 5 mg/kg), 3-min period, vs saline",did not significantly affect marginal activity
same,locomotor activity (total distance moved),"C57 BL/6 mice; 20 or 40 mg/kg i.p./day x 7 days, 30 min after final treatment, vs saline",comparable to that with saline
same,effect on LPS-induced mortality,LPS-treated mice [10],No animal died
same,effect on LPS-induced decrease in locomotor activity,LPS-treated mice [11],significantly prevented LPS-induced decrease in locomotor activity
same,effect on MPTP-induced reduction in locomotor activity,MPTP-treated mice [12],significantly prevented MPTP-induced reduction in locomotor activity
same,effect on LPS-induced increase in F4/80-like immunoreactivity (microglia),LPS-treated mice [13],most effective in attenuating LPS-induced increase in F4/80-like immunoreactivity
same,affinity for NMDA receptor associated PCP sites,[14],very low affinities
same,behavioural effects of the compound itself,"MA-treated mice [15]; AM 251 0.3, ACEA 2, HM 20 mg/kg, no MA (Ex. 3.14)","Neither saline-, AM 251 (0.3 mg/kg)-, ACEA (2 mg/kg)-treated nor HM (20 mg/kg)-treated animals showed any behavioural effects"
same,effect on MA-induced behavioural sensitization (CB1 modulation study),"MA-treated mice [15]; MA 1 mg/kg i.p./day x 7, challenge one week later (Ex. 3.14)",significantly reduced
same,effect on MPTP-induced decrease in nigral TH-positive cells,MPTP-treated mice [16],significantly attenuated the decrease in TH-positive cells
same,CPP response of the compound itself,"MA-treated mice [17]; AM 251 0.3, HM 20, ACEA 2 mg/kg i.p., no MA","Neither saline-, AM 251 (0.3 mg/kg, i.p.)-treated nor HM (20 mg/kg)-treated animals showed any CPP responses"
same,effect on MA-induced CPP,"MA-treated mice [17]; mouse, in vivo",significantly reduced the CPP produced by MA
same,effect on MA-induced reduction in locomotor activity,MA-treated mice [18],more efficacious than that of L-dopa or carbidopa+L-dopa
same,Ki,cannabinoid CB1 site,11.5 nM
